Assay results reported in patent US20090156825A1, “Fluorescent compounds that bind to histone deacetylase” (priority 2007, published 2009).
Entries after “also recorded” stand apart in the source; their conditions may differ.

Molecular target: T1, HDAC1 (Homo sapiens, UniProt Q13547)
T1 construct: Flag
Assay: Fluorescence polarization Kd determination of FITC-labeled compounds by HDAC1 titration
Assay type: binding
Details: for time for binding to come to equilibrium: FP read over time after adding the FITC-labeled compound to HDAC1; for binding mechanism (exponential fit of Kd app versus time): replot of Kd app values vs. time, 1-phase or 2-phase exponential fit
Method: Titrations of HDAC1 were set up in 96-well black, flat-bottom plates. The concentrations of HDAC1 varied from 5 to 200 nM (with COMPOUND 1 and COMPOUND 2) or 20 to 450 nM (with COMPOUND 3). At time zero, the FITC-labeled compound was added and the plate inserted into the Analyst HT for FP detection. The samples were read every 5 seconds through ˜10 minutes (COMPOUND 1) or 2 hours (COMPOUND 2 and COMPOUND 3). The data at each time point was converted from mP to […] and plotted in Prism using an equation for ligand binding taking ligand-depletion into consideration (Equations 1-3) (An example of which is given in FIG. 1A).
where Lt is total fluorescently-labeled compound concentration, Rt is total HDAC concentration, Kd is the dissociation constant for the ligand to HDAC, Ab is the anisotropy when 100% of the ligand is bound, and Af is the anisotropy when 100% of the ligand is free. The values determined by the data as plotted in Figure A are Kd^app, Ab, and Af.
After determining the Kd^app for each time point, the Kd^app was replotted versus time (FIG. 1B) to determine true steady-state Kd. […] The plateau value of this exponential decay defines the steady-state Kd value.

T1 sequence (Q13547 whole entry): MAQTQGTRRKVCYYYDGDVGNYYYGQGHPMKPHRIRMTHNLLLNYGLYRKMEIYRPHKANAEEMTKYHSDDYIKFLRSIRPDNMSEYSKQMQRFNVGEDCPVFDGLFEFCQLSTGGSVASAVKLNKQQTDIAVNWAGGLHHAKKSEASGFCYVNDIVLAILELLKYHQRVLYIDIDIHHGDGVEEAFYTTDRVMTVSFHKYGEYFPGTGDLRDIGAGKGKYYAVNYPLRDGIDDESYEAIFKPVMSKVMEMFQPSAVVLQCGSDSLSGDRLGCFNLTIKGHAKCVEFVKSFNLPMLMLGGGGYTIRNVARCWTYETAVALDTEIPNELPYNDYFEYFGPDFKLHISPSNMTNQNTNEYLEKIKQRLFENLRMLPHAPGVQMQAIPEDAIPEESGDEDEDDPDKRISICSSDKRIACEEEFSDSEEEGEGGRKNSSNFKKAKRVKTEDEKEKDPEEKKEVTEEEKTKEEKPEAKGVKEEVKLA

Compound	time for binding to come to equilibrium	binding mechanism (exponential fit of Kd app versus time)	Kd (plateau of Kd app replotted versus time, HDAC1 5 to 200 nM, FP detection, read-out: true steady-state Kd)	binding mechanism (exponential fit of Kd app versus time) (listed as FITC-SAHA)
Nc1ccc(-c2ccccc2)cc1NC(=O)c1ccc(CNC(=O)OCc2ccc(CNC(=S)Nc3ccc(-c4c5ccc(=O)cc-5oc5cc(O)ccc45)c(C(=O)O)c3)cc2)cc1 [COMPOUND 2, 5-{[({4-[({[(4-{[(4-aminobiphenyl-3-yl)amino]carbonyl}benzyl)amino]carbonyl}oxy)methyl]benzyl}amino)carbonothioyl]amino}-2-(6-hydroxy-3-oxo-3H-xanthen-9-yl)benzoic acid]	210 min	requires a 2-phase exponential curve; also recorded: bound slowly with an induced-fit mechanism	–	–
O=C(CCCCCCC(=O)Nc1ccc(CNC(=S)Nc2ccc(-c3c4ccc(=O)cc-4oc4cc(O)ccc34)c(C(=O)O)c2)cc1)NO [COMPOUND 1, 5-({[(4-{[8-(hydroxyamino)-8-oxooctanoyl]amino}benzyl)amino]carbonothioyl}amino)-2-(6-hydroxy-3-oxo-3H-xanthen-9-yl)benzoic acid]	faster than could be measured by the instrument used	classical 1-step binding mechanism	16 nM	fits 1-phase exponential curve quite well
